US12606552B2, “Bifunctional compound, preparation method therefor, and use thereof” (SUZHOU KINTOR PHARMACEUTICALS, INC., priority 2020, dated 2026)

Biological target: T1, AR (Homo sapiens, UniProt P10275, T878A)
T1 sequence (P10275 1-920 T878A): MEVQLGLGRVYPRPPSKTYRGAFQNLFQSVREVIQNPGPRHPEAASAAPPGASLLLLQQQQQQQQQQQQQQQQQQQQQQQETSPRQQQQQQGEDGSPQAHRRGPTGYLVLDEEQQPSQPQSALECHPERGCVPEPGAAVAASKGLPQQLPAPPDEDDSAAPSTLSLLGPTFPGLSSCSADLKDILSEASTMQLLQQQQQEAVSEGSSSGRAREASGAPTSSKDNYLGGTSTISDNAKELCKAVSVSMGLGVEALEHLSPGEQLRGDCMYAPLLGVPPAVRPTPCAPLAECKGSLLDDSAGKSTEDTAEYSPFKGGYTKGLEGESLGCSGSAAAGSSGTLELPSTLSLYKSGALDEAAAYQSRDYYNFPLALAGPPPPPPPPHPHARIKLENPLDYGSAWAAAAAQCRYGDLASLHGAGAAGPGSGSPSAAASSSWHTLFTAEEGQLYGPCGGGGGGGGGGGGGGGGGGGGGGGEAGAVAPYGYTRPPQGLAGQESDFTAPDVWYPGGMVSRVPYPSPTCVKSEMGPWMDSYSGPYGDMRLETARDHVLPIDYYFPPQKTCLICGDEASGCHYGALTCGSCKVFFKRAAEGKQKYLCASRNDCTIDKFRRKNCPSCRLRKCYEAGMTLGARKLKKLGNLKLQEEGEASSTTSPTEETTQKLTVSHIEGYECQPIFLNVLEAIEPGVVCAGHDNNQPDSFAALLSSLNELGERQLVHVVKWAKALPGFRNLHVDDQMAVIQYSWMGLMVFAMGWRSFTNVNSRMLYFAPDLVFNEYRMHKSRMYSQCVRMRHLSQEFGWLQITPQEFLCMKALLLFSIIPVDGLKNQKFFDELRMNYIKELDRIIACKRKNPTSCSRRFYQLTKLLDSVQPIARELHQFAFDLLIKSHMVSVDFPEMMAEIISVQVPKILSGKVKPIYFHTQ
Assay: Degradation effect on AR protein activity in prostate cancer cell line Lncap by ELISA method
Assay type: cell-based
Design: Degradation Effect of Compounds on AR Protein Activity in Prostate Cancer Cell Line Lncap by ELISA Method; endogenous in cells; host or cells: LNCaP
Settings: 24 hours, Total Androgen Receptor Sandwich ELISA, read-out: IC50 (the drug concentration at 50% inhibition) of AR protein
Description: Activity Assay Example 6: Determination of the Degradation Effect of Compounds on AR Protein Activity in Prostate Cancer Cell Line Lncap by ELISA Method
• LNCaP: 1.5*10^LNCaP (human prostate cancer) was purchased from the Chinese Academy of Sciences Cell Bank and cultured in RPMI-1640 medium containing 10% fetal bovine serum. Lncap cells were cultured at 37° C. and 5% CO2 in a humidified incubator. When the coverage reached about 80%, the cells were passaged at a ratio of 1:3. • ELISA kit: Total Androgen Receptor Sandwich ELISA Kit (Brand CST, Cat #12850). 2. Test Method 2.1 Cell Plating
After the cells were centrifuged, they were diluted to 1.5×10^4 cells/100 ul with fresh medium and plated into a 96-well plate with 100 ul per well.
Test compound preparation: The compounds were weighed and diluted with DMSO to stock solution with a concentration of 10 mM for later use. According to the experimental requirements, the drug was diluted from 2 uM, 3 fold dilution for 10 point series, and finally 2 μl of the drug was added to each well, and 2 μl of DMSO was added to the control group.
2.3 After 24 hours, the medium was removed, and the cells were washed once with ice-cold 1×PBS. Then the PBS was removed, and 0.5 ml ice-cold 1× Cell Lysis Buffer containing 1 mM PMSF was added to each well plate and incubated on ice for 20 minutes. […]

Cc1ncsc1-c1ccc(CNC(=O)[C@@H]2C[C@@H](O)CN2C(=O)[C@@H](NC(=O)COCCCCOc2ccc(-c3ccc(N4C(=S)N(c5ccc(C#N)c(C(F)(F)F)c5F)C(=O)C4(C)C)cn3)cc2)C(C)(C)C)cc1 [Compound A46]
DC50: 49 nM
